Consider nine molecules from article PMC12356528, “Modular Synthetic Platform for the Elaboration of Fragments in Three Dimensions for Fragment-Based Drug Discovery” (Journal of the American Chemical Society, 2025).

In brackets after ≈: the same amount, converted by molar mass. Where two headings read alike, the source gives them in different places.

The nature of data set [1]: DMPK Wave1: lipophilicity (measured logD). Type of data set: physicochemical.
Data set [2] can be described thus: DMPK Wave1: aqueous solubility. Type of data set: physicochemical.
Data set [3] can be described thus: DMPK Wave1: metabolic stability in rat hepatocytes. The data set is classed as in vitro ADME. The settings on record: rat hepatocytes (RH).
Data set [4] is described as follows: DMPK Wave1: metabolic stability in human liver microsomes. The data set is classed as in vitro ADME. The settings on record: human liver microsomes (HLM).

As a reminder, the logD is the decadic logarithm of the distribution of all forms, ionised or not, between an organic phase and buffer at a given pH. As a reminder, the solubility is how much of the substance goes into solution per volume. A high value points to much dissolved substance.

With `Cc1noc(C)c1S(=O)(=O)N1CCC2(CC1)CC2c1cnc2[nH]ccc2c1` (stereo not drawn) [Compound 78], in data set [1], the logD amounted to 3.6. This molecule also displayed a solubility in data set [2] of 49 µM (≈ 18.9 µg/mL). Besides, the “metabolic stability (in words)” value in data set [3] and in data set [4] was “lower metabolic stability” in each case.
For `COc1cc([C@H]2[C@@H]3CN(C(=O)Cc4c[nH]c5ccccc45)CC[C@@H]32)ccn1` [Compound 81], the logD in data set [1] is 3.1. For the same molecule, the concentration in solution in data set [2] (solubility) was 100 µM (≈ 36.1 µg/mL). Besides, the “metabolic stability (in words)” value in data set [3] and in data set [4] was “lower metabolic stability” in each case.
The molecule `c1ncc(C2CC23CCN(c2ccc4c(c2)OCO4)CC3)cn1` (stereo not drawn) [Compound 82] came in with a logD in data set [1] of 0.1. This molecule also gave a solubility in data set [2] of 887 µM (≈ 274 µg/mL). The “metabolic stability (in words)” value in data set [3] and in data set [4] was “good metabolic stability” in each case.
In data set [1], `CS(=O)(=O)N1CCC2CC21c1cncnc1` (stereo not drawn) [Compound 86] showed a logD of -0.4. In data set [2], this molecule displayed a solubility of 881 µM (≈ 211 µg/mL).
In data set [1], `CS(=O)(=O)N1CCC2(CC1)CC2c1cncnc1` (stereo not drawn) [Compound 87] yielded a logD of 0.2. Also, the solubility in data set [2] was 931 µM (≈ 249 µg/mL).
Molecule `CS(=O)(=O)N1CC2(CC2c2cncnc2)C1` (stereo not drawn) [Compound 88] returned a logD in data set [1] of -0.6. In data set [2], this molecule came in with a solubility of 913 µM (≈ 218 µg/mL).
Turning to `CS(=O)(=O)N1C2CCC1CC1(C2)CC1c1cncnc1` (stereo not drawn) [Compound 91], the logD in data set [1] is 0.5. This molecule had a solubility in data set [2] greater than 981 µM.
In turn, `CS(=O)(=O)N1CCC[C@@H]2[C@@H](c3cncnc3)[C@@H]21` [Compound 94] displayed a logD in data set [1] of 0.1. The solubility in data set [2] (aqueous) stood at 823 µM (≈ 208 µg/mL).
`C=CC(=O)N1C[C@H](Nc2ncnc3[nH]ccc23)CC[C@@H]1C` [Ritlecitinib, 1-((2S,5R)-5-((7H-Pyrrolo[2,3-d]pyrimidin-4-yl)amino)-2-methylpiperidin-1-yl)prop-2-en-1-one, reference compound] gave a logD in data set [1] of 1.6. In data set [2] (aqueous), the solubility was determined as 996 µM (≈ 284 µg/mL).
